Laboratory results reported in patent US8058475B2, “Substituted cyclohexylmethyl compounds” (Gruenenthal GmbH, priority 2005, dated 2011).
Read-outs that look alike come from different tables or passages of the source.

Target: human μ-opiate receptor (Homo sapiens, UniProt P35372)
Assay: Affinity for the human μ-opiate receptor ([3H]-naloxone displacement, SPA, CHO-K1 membrane preparation)
Format: binding
Settings: for inhibition at 1 µM: read-out: μ-Opioid receptor, % inhibition [1 μM]; for Ki: read-out: μ-Opioid receptor, Ki
[1] = 1 μM test substance, inhibition of specific [3H]-naloxone binding

Sequence of human μ-opiate receptor (P35372 whole entry): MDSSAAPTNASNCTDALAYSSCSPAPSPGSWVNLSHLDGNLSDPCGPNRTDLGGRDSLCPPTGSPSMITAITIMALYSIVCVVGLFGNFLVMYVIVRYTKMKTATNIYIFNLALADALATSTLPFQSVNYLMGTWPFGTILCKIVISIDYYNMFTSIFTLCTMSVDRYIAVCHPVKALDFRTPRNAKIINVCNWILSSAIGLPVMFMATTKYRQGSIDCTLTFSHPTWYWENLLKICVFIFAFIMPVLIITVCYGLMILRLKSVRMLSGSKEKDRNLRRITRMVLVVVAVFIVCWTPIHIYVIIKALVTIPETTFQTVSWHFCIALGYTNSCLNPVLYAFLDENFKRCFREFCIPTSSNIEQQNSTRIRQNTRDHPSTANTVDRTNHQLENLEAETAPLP

Row | SMILES | inhibition at 1 µM [%] | Ki [nM] | μ-Opioid receptor, % inhibition [1 μM] [%] | inhibition at 1 µM [1] [%] | μ-Opioid receptor, % inhibition [1 μM] (1 µM) [%]
1 | CSc1ncccc1C(=O)NCCC1CCC(C(c2ccccc2)N(C)C)CC1 (stereo not drawn) [compound 466, N-{2-[4-(dimethylamino-phenyl-methyl)-cyclohexyl]-ethyl}-2-methylsulfanyl-nicotinamide] | 86 | 41 |  |  | 
2 | CSc1ncccc1C(=O)NCC1CCC(C(c2ccc(Cl)cc2)N(C)C)CC1 (stereo not drawn) [compound 315, N-{4-[(4-chloro-phenyl)-dimethylamino-methyl]-cyclohexylmethyl}-2-methyl-sulfanyl-nicotinamide] |  | 160 | 97 |  | 
3 | COc1cccc(CC(=O)NCCC2CCC(C(c3cccs3)N(C)C)CC2)c1 (stereo not drawn) [compound 454, N-{2-[4-(dimethylamino-thiophen-2-yl-methyl)-cyclohexyl]-ethyl}-2-(3-methoxy-phenyl)-acetamide] | 87 | 51 |  |  | 
4 | CCCCCC1(O)CCC(C(c2cccc(F)c2)N(C)C)CC1 (stereo not drawn) [compound 154, 4-[dimethylamino-(3-fluoro-phenyl)-methyl]-1-pentyl-cyclohexanol] |  |  |  | 50 | 
5 | CN(C)C(c1ccccc1)C1CCC(CCNC(=O)c2ccc(F)cc2)CC1 (stereo not drawn) [compound 407, N-{2-[4-(dimethylamino-phenyl-methyl)-cyclohexyl]-ethyl}-4-fluoro-benzamide] | 87 | 48 |  |  | 
6 | Cc1ccccc1C1(O)CCC(C(c2ccc(Cl)cc2)N(C)C)CC1 (stereo not drawn) [compound 161, 4-[(4-chloro-phenyl)-dimethylamino-methyl]-1-o-tolyl-cyclohexanol] |  |  |  | 60 | 
7 | CN(C)C(c1cccc(F)c1)C1CCC(CNC(=O)c2csc(-c3ccccc3)n2)CC1 (stereo not drawn) [compound 365, 2-phenyl-thiazole-4-carboxylic acid {4-[dimethylamino-(3-fluoro-phenyl)-methyl]-cyclohexylmethyl}-amide] | 85 | 74 |  |  | 
8 | Cc1cccc(C(=O)NCCC2CCC(C(c3cccc(F)c3)N(C)C)CC2)c1 (stereo not drawn) [compound 412, N-(2-{4-[dimethylamino-(3-fluoro-phenyl)-methyl]-cyclohexyl}-ethyl)-3-methyl-benzamide] | 93 | 32 |  |  | 
9 | CN(C)C(c1ccc(F)cc1)C1CCC(NC(=O)c2ccc(Cl)c(Cl)c2)CC1 (stereo not drawn) [compound 270, 3,4-dichloro-N-{4-[dimethylamino-(4-fluoro-phenyl)-methyl]-cyclohexyl}-benzamide] | 75 | 190 |  |  | 
10 | CN(C)C(c1ccccc1)C1CCC(NC(=O)c2ccc(Cl)c(Cl)c2)CC1 (stereo not drawn) [compound 189, 3,4-dichloro-N-[4-(dimethylamino-phenyl-methyl)-cyclohexyl]-benzamide] | 99 | 11 |  |  | 
11 | CN(C)C(c1cccs1)C1CCC(CNC(=O)c2ccccc2Br)CC1 (stereo not drawn) [compound 296, 2-bromo-N-[4-(dimethylamino-thiophen-2-yl-methyl)-cyclohexylmethyl]-benzamide] | 100 | 0.3 |  |  | 
12 | CN(C)C(c1cccs1)C1CCC(CCNC(=O)c2ccc(F)cc2)CC1 (stereo not drawn) [compound 426, N-{2-[4-(dimethylamino-thiophen-2-yl-methyl)-cyclohexyl]-ethyl}-4-fluoro-benzamide] | 99 | 5.8 |  |  | 
13 | CC(Oc1ccccc1)C(=O)NC1CCC(C(c2cccc(F)c2)N(C)C)CC1 (single isomer, unassigned) [compound 222, N-{4-[dimethylamino-(3-fluoro-phenyl)-methyl]-cyclohexyl}-2-phenoxy-propionamide] |  | 20 |  |  | 88
14 | CN(C)C(c1ccccc1)C1CCC(CCNC(=O)c2ccc([N+](=O)[O-])cc2)CC1 (stereo not drawn) [compound 458, N-{2-[4-(dimethylamino-phenyl-methyl)-cyclohexyl]-ethyl}-4-nitro-benzamide] | 93 | 49 |  |  | 
15 | CN(C)C(c1ccccc1)C1CCC(NC(=O)C2CCCCC2)CC1 (stereo not drawn) [compound 272, cyclohexanecarboxylic acid [4-(dimethylamino-phenyl-methyl)-cyclohexyl]-amide] | 75 | 90 |  |  | 
16 | CCCC(=O)N(CCc1c[nH]c2ccccc12)C1CCC(C(c2ccccc2)N(C)C)CC1 (stereo not drawn) [compound 181, N-(2-(1H-indol-3-yl)ethyl)-N-(4-((dimethylamino)(phenyl)methyl)-cyclohexyl)butyramide] | 95 | 3.9 |  |  | 
17 | CN(C)C(c1cccc(F)c1)C1CCC(CCNC(=O)c2cccc(Cl)c2)CC1 (single isomer, unassigned) [compound 400, 3-chloro-N-(2-{4-[dimethylamino-(3-fluoro-phenyl)-methyl]-cyclohexyl}-ethyl)-benzamide] | 94 | 23 |  |  | 
18 | CC(C)S(=O)(=O)c1csc(C(=O)NC2CCC(C(c3cccs3)N(C)C)CC2)c1Cl (stereo not drawn) [compound 221, 3-chloro-4-(propan-2-sulfonyl)-thiophene-2-carboxylic acid [4-(dimethylamino-thiophen-2-yl-methyl)-cyclohexyl]-amide] | 88 | 29 |  |  | 

Row | SMILES | inhibition at 1 µM [%] | Ki [nM] | μ-Opioid receptor, % inhibition [1 μM] [%] | inhibition at 1 µM [1] [%] | μ-Opioid receptor, % inhibition [1 μM] (1 µM) [%]
19 | CN(C)C(c1cccs1)C1CCC(NC(=O)c2cccc(C#N)c2)CC1 (stereo not drawn) [compound 186, 3-cyano-N-[4-(dimethylamino-thiophen-2-yl-methyl)-cyclohexyl]-benzamide] | 100 | 18 |  |  | 
20 | CN(C)C(c1ccc(Cl)cc1)C1CCC(O)(c2cccc(F)c2)CC1 (stereo not drawn) [compound 171, 4-[(4-chloro-phenyl)-dimethylamino-methyl]-1-(3-fluoro-phenyl)-cyclohexanol] |  |  |  | 67 | 
21 | CCCCC1(O)CCC(C(c2ccc(Cl)cc2)N(C)C)CC1 (stereo not drawn) [compound 167, 1-butyl-4-[(4-chloro-phenyl)-dimethylamino-methyl]-cyclohexanol] |  |  |  | 58 | 
22 | CN(C)C(c1cccc(F)c1)C1CCC(CCNC(=O)c2cc(F)c(Cl)cc2Cl)CC1 (single isomer, unassigned) [compound 439, 2,4-dichloro-N-(2-{4-[dimethylamino-(3-fluoro-phenyl)-methyl]-cyclohexyl}-ethyl)-5-fluoro-benzamide] |  | 52 |  |  | 85
23 | CN(C)C(c1cccs1)C1CCC(CCNC(=O)c2cccc(Cl)c2)CC1 (stereo not drawn) [compound 424, 3-chloro-N-{2-[4-(dimethylamino-thiophen-2-yl-methyl)-cyclohexyl]-ethyl}-benzamide] | 99 | 2.7 |  |  | 
24 | CCC(C(=O)NCCC1CCC(C(c2ccc(Cl)cc2)N(C)C)CC1)c1ccccc1 (stereo not drawn) [compound 455, N-(2-{4-[(4-chloro-phenyl)-dimethylamino-methyl]-cyclohexyl}-ethyl)-2-phenyl-butyramide] | 81 | 69 |  |  | 
25 | CN(C)C(c1ccc(Cl)cc1)C1CCC(CNC(=O)c2ccccc2Cl)CC1 (stereo not drawn) [compound 354, 2-chloro-N-{4-[(4-chloro-phenyl)-dimethylamino-methyl]-cyclohexylmethyl}-benzamide] | 86 | 53 |  |  | 
26 | CN(C)C(c1ccccc1)C1CCC(CNC(=O)C2(c3ccc(Cl)cc3)CCCC2)CC1 (stereo not drawn) [compound 339, 1-(4-chloro-phenyl)-cyclopentane-carboxylic acid [4-(dimethylamino-phenyl-methyl)-cyclohexylmethyl]-amide] |  | 25 |  |  | 91
27 | Cc1ccc(Oc2ncccc2C(=O)NC2CCC(C(c3cccs3)N(C)C)CC2)cc1 (stereo not drawn) [compound 220, N-[4-(dimethylamino-thiophen-2-yl-methyl)-cyclohexyl]-2-p-tolyloxy-nicotinamide] | 88 | 150 |  |  | 
28 | CN(C)C(c1ccc(Cl)cc1)C1CCC(O)(c2cc(F)cc(F)c2)CC1 (stereo not drawn) [compound 166, 4-[(4-chloro-phenyl)-dimethylamino-methyl]-1-(3,5-difluoro-phenyl)-cyclohexanol] |  |  |  | 62 | 
29 | CC(Oc1ccccc1)C(=O)NCC1CCC(C(c2cccc(F)c2)N(C)C)CC1 (single isomer, unassigned) [compound 332, N-{4-[dimethylamino-(3-fluoro-phenyl)-methyl]-cyclohexylmethyl}-2-phenoxy-propionamide] | 93 | 20 |  |  | 
30 | CN(C)C(c1cccs1)C1CCC(NC(=O)c2cncc(Br)c2)CC1 (stereo not drawn) [compound 225, 5-bromo-N-[4-(dimethylamino-thiophen-2-yl-methyl)-cyclohexyl]-nicotinamide] | 87 | 20 |  |  | 
31 | CN(C)C(c1ccccc1)C1CCC(CCNC(=O)c2cccc(C#N)c2)CC1 (stereo not drawn) [compound 477, 3-cyano-N-{2-[4-(dimethylamino-phenyl-methyl)-cyclohexyl]-ethyl}-benzamide] | 96 | 13 |  |  | 
32 | CN(C)C(c1cccs1)C1CCC(CNC(=O)c2cc(F)cc(C(F)(F)F)c2)CC1 (stereo not drawn) [compound 308, N-[4-(dimethylamino-thiophen-2-yl-methyl)-cyclohexylmethyl]-3-fluoro-5-trifluoromethyl-benzamide] | 98 | 7.4 |  |  | 
33 | CN(C)C(c1ccc(Cl)cc1)C1CCC(CNC(=O)Cc2cccs2)CC1 (stereo not drawn) [compound 316, N-{4-[(4-chloro-phenyl)-dimethylamino-methyl]-cyclohexylmethyl}-2-thiophen-2-yl-acetamide] | 96 |  |  |  | 
34 | CN(C)C(c1cccc(F)c1)C1CCC(CNC(=O)C2(c3ccc(Cl)cc3)CCCC2)CC1 (stereo not drawn) [compound 327, 1-(4-chloro-phenyl)-cyclopentane-carboxylic acid {4-[dimethylamino-(3-fluoro-phenyl)-methyl]-cyclohexylmethyl}-amide] | 94 | 63 |  |  | 
35 | CCC(C(=O)NCC1CCC(C(c2ccccc2)N(C)C)CC1)c1ccccc1 (stereo not drawn) [compound 321, N-[4-(dimethylamino-phenyl-methyl)-cyclohexylmethyl]-2-phenyl-butyramide] | 95 | 22 |  |  | 
36 | CN(C)C(c1ccccc1)C1CCC(NC(=O)c2cc(F)ccc2C(F)(F)F)CC1 (stereo not drawn) [compound 281, N-[4-(dimethylamino-phenyl-methyl)-cyclohexyl]-5-fluoro-2-trifluoromethyl-benzamide] | 73 | 46 |  |  | 
